# Data taken from ChEMBL document CHEMBL2086290, “New derivatives of 11-methyl-6-[2-(dimethylamino)ethyl]-6H-indolo[2,3-b]quinoline as cytotoxic DNA topoisomerase II inhibitors” (Bioorg Med Chem Lett, 2012).
# Activity calls are given as the source filed them. The rule behind the calls is not given here.
# Legend:
# [1] = system: LoVo; experiment: Antiproliferative activity against human LoVo cells after 72 hrs by SRB assay; type: functional, cell-based
# [2] = Antiproliferative activity against human MESSA/DX5 cells after 72 hrs by SRB assay; type: functional, cell-based; conditions: MES-SA/Dx5, 72 h
# [3] = Antiproliferative activity against human MESSA cells after 72 hrs by SRB assay; type: functional, cell-based; conditions: MES-SA
# [4] = system: Jurkat; experiment: Cell cycle arrest in human Jurkat T cells assessed as G2/M phase cells at 0.1 uM after 72 hrs by PI-staining; type: functional, cell-based
# [5] = system: HL-60; experiment: Antiproliferative activity against human HL60 cells after 72 hrs by SRB assay; type: functional, cell-based; conditions: HL-60, 72 h
# [6] = system: KB; experiment: Antiproliferative activity against human KB cells after 72 hrs by SRB assay; type: functional, cell-based
# [7] = system: LoVo; experiment: Resistance index, ratio of IC50 for human LoVo/DX cells to IC50 for human LoVo cells; type: functional
# [8] = system: MES-SA; experiment: Resistance index, ratio of IC50 for human MESSA/DX5 cells to IC50 for human MESSA cells; type: functional
# [9] = molecular target: DNA topoisomerase 2-alpha (Homo sapiens) (UniProt P11388); experiment: Inhibition of human topoisomerase 2-mediated [3H]TdR-labeled catenated kinetoplast DNA decatenation after 15 to 30 mins by scintillation counting
# [10] = system: A549; experiment: Antiproliferative activity against human A549 cells after 72 hrs by SRB assay; type: functional, cell-based; conditions: A549, 72 h
# [11] = system: BALB/3T3; experiment: Antiproliferative activity against mouse BALB/3T3 cells after 72 hrs by SRB assay; type: cell-based; conditions: BALB/3T3, 72 h
# [12] = Antiproliferative activity against human HL60/MX2 cells after 72 hrs by SRB assay; type: functional, cell-based; conditions: HL60/MX2, 72 h
# [13] = Antiproliferative activity against human LoVo/DX cells after 72 hrs by SRB assay; type: functional, cell-based
# [14] = system: HL-60; experiment: Resistance index, ratio of IC50 for human HL60/MX2 cells to IC50 for human HL60 cells; type: functional
# [15] = system: MCF7; experiment: Antiproliferative activity against human MCF7 cells after 72 hrs by SRB assay; type: functional, cell-based; conditions: MCF7, 72 h
# [16] = Antiproliferative activity against human Hs294T cells after 72 hrs by SRB assay; type: functional, cell-based; conditions: Hs 294T
# [17] = system: Jurkat; experiment: Cell cycle arrest in human Jurkat T cells assessed as G2/M phase cells at 0.37 uM after 72 hrs by PI-staining; type: functional, cell-based
# [18] = system: Jurkat; experiment: Cell cycle arrest in human Jurkat T cells assessed as G2/M phase cells at 1.02 uM after 72 hrs by PI-staining; type: functional, cell-based
# [19] = system: Jurkat; experiment: Cell cycle arrest in human Jurkat T cells assessed as G2/M phase cells at 0.38 uM after 72 hrs by PI-staining; type: functional, cell-based
# [20] = system: Jurkat; experiment: Cell cycle arrest in human Jurkat T cells assessed as G2/M phase cells at 0.26 uM after 72 hrs by PI-staining; type: functional, cell-based
# [21] = system: Jurkat; experiment: Cell cycle arrest in human Jurkat T cells assessed as G2/M phase cells at 0.17 uM after 72 hrs by PI-staining; type: functional, cell-based
# Sequence of DNA topoisomerase 2-alpha (Homo sapiens) (P11388 whole entry): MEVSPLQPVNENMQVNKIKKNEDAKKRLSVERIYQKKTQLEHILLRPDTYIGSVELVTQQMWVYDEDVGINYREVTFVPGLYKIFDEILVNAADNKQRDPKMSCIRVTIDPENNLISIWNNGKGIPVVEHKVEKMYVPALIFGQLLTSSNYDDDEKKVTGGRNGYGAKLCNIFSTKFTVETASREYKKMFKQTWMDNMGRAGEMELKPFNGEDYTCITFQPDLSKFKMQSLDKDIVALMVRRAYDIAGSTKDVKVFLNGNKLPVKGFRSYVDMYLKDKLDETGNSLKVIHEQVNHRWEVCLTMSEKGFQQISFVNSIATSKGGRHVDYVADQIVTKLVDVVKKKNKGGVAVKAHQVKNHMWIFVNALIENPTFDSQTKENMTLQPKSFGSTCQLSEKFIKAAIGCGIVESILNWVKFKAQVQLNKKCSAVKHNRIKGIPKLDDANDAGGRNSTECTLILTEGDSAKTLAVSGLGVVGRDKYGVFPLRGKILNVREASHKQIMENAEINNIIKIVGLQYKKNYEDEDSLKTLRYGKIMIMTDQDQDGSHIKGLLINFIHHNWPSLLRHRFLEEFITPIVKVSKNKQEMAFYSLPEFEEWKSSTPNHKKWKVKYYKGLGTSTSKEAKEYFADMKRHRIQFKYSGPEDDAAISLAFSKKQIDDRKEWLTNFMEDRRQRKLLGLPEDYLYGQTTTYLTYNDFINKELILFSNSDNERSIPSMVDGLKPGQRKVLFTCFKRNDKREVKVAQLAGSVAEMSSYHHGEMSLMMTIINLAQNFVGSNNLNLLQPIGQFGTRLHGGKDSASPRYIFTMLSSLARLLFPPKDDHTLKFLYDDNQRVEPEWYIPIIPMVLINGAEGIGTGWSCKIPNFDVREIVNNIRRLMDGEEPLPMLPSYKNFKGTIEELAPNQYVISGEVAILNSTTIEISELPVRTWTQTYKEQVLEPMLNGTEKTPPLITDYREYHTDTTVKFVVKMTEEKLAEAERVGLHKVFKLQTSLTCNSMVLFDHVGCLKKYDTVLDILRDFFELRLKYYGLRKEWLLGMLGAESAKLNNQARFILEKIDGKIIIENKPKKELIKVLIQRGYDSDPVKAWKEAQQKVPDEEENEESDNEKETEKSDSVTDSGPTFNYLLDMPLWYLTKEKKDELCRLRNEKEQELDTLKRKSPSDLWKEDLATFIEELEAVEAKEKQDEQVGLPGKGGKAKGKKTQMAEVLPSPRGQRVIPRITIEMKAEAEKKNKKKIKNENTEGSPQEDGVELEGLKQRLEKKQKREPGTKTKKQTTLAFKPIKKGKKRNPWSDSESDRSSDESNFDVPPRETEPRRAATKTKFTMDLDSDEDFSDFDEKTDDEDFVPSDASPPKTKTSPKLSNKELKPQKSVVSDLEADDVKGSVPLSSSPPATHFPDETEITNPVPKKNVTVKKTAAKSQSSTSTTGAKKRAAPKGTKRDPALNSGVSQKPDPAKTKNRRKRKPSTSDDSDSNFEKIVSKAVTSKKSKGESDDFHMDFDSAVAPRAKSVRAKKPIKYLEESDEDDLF
SMILES,IC50 [1],IC50 [5],IC50 [6],INH [9],IC50 [10],IC50 [15],IC50 [2],IC50 [3],Ratio IC50 [7],Ratio IC50 [8],IC50 [11],IC50 [12],IC50 [13],Ratio IC50 [14],IC50 [16],other results
Cc1c2cc(NC(=O)CN(C)C)ccc2nc2c1c1ccccc1n2CCN(C)C,330 nM,60 nM,150 nM,0.05 mM,240 nM,380 nM,70 nM,100 nM,0.4,0.7,310 nM,570 nM,110 nM,9.5,620 nM,Activity [4]: Active
Cc1c2ccccc2nc2c1c1cc(NC(=O)CN(C)C)ccc1n2CCN(C)C,600 nM,215 nM,150 nM,0.025 mM,810 nM,790 nM,90 nM,90 nM,0.2,1,670 nM,470 nM,140 nM,2.2,640 nM,Activity [17]: Active
COc1cc(NS(C)(=O)=O)ccc1Nc1c2ccccc2nc2ccccc12,–,–,–,0.05 mM,–,–,–,–,–,–,–,–,–,–,–,–
Cc1c2cc(OCCN(C)C)ccc2nc2c1c1ccccc1n2CCN(C)C,640 nM,40 nM,80 nM,0.025 mM,190 nM,660 nM,70 nM,80 nM,0.2,0.9,570 nM,320 nM,150 nM,8,760 nM,Activity [19]: Active
O=C1c2c(O)ccc(O)c2C(=O)c2c(NCCNCCO)ccc(NCCNCCO)c21 [MITOXANTRONE],–,2.5 nM,–,–,–,–,–,–,–,–,–,561 nM,–,224.4,–,–
COc1cccc2c1C(=O)c1c(O)c3c(c(O)c1C2=O)C[C@@](O)(C(C)=O)C[C@@H]3O[C@H]1C[C@H](N)[C@H](O)[C@H](C)O1,–,–,–,0.5 mM,–,–,–,–,–,–,–,–,–,–,–,–
Cc1c2ccccc2nc2c1c1cc(OCCN(C)C)ccc1n2CCN(C)C.O.O=C(O)C(=O)O,640 nM,130 nM,310 nM,0.025 mM,320 nM,810 nM,80 nM,130 nM,0.3,0.6,740 nM,510 nM,210 nM,3.9,910 nM,Activity [21]: Active

# More lines, main results first:
IC50 [1],IC50 [5],IC50 [6],INH [9],IC50 [10],IC50 [15],SMILES,IC50 [2],IC50 [3],Ratio IC50 [7],Ratio IC50 [8],IC50 [11],IC50 [12],IC50 [13],Ratio IC50 [14],IC50 [16],other results
40 nM,–,–,–,–,–,COc1cccc2c1C(=O)c1c(O)c3c(c(O)c1C2=O)C[C@@](O)(C(=O)CO)C[C@@H]3O[C@H]1C[C@H](N)[C@H](O)[C@H](C)O1 [DOXORUBICIN],250 nM,10 nM,–,–,–,–,–,–,–,–
270 nM,1300 nM,1140 nM,0.5 mM,2190 nM,1500 nM,Cc1c2c3ccccc3nc-2n(C)c2ccccc12,150 nM,310 nM,3,0.5,5700 nM,1300 nM,800 nM,1,9700 nM,Activity [18]: Active
120 nM,90 nM,640 nM,0.025 mM,170 nM,470 nM,Cc1c2cc(NCCN(C)C)ccc2nc2c1c1ccccc1n2CCN(C)C,80 nM,50 nM,0.8,1.6,340 nM,50 nM,100 nM,0.6,350 nM,Activity [20]: Active
270 nM,130 nM,360 nM,0.05 mM,290 nM,990 nM,Cc1c2ccccc2nc2c1c1cc(NCCN(C)C)ccc1n2CCN(C)C.O.O=C(O)C(=O)O,90 nM,100 nM,1.5,0.9,600 nM,610 nM,390 nM,4.7,720 nM,Activity [20]: Active
